In patent US20240262842A1, “SMALL MOLECULE INHIBITORS OF KRAS G12C MUTANT” (Merck Sharp & Dohme LLC, priority 2021, published 2024):
Read-outs that look alike come from different tables or passages of the source.

How the values were obtained:
[1] = molecular target: T1, interaction between GMPPNP-bound recombinant K-Ras4B G12C mutant protein and cRAF RAS-binding domain (cRAF-RBD) (Homo sapiens, UniProt P01116, G12C); assay: Inhibitory activity on interaction between KRAS G12C and cRAF (Alpha technology)
T1 construct: His-tag (N)
Summary of the method: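 His-tagged K-Ras4B G12C (aa 1-169), GMPPNP-loaded, preincubated with compound 1 h at 25° C in pH 7.5 Tris buffer with MgCl2, TCEP, Tween 20. cRAF-RBD (aa 50-132) and Alpha reagents then added for 1.5 h; Alpha signal normalised to DMSO (0%) and GDP-bound KRAS (100%); IC50 from dose titration.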

[2] = tested on: MIA PaCa-2 cells; assay: Growth inhibition activity on KRAS-G12C mutant cell line (CellTiter-Glo 3D); format: cell-based, human; conditions: MIA PaCa-2, 3-day culture with compound
Summary of the method: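 MIA PaCa-2 cells in RPMI1640 with 10% FBS, U-bottom wells, cultured 1 day before compound (0.2% DMSO final), then 3 days at 37 °C, 5% CO2. Viability by CellTiter-Glo 3D luminescence; growth inhibition versus untreated wells gives IC50 (nM).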

[3] = GMPPNP-bound KRAS G12C incubated with compound 25° C. 1 hour, Table 2-1, read-out: IC50
[4] = Homo sapiens, MIA PaCa-2, 72 h, Table 3-1
[5] = IC50, GMPPNP-bound KRAS G12C incubated with compound 25° C. 1 hour, Table 2-1

Molecule	IC50 [1, 3] [nM]	IC50 [2, 4] [nM]	further results
COCCn1c(C)nc2c3c(c(OC)cc21)-c1cccn2c(C(=O)c4cc(F)c(NC(=O)/C=C/CNC5(C)CCCC5)c(F)c4)cc(c12)CCO3 [Example 246, (E)-N-(2,6-difluoro-4-(7-methoxy-9-(2-methoxyethyl)-10-methyl-13,14-dihydro-9H-imidazo[4″,5″:5′,6′]benzo[1′,2′:2,3]oxocino[4,5,6-hi]indolizine-2-carbonyl)phenyl)-4-((1-methylcyclopentyl)amino)but-2-enamide]	13.6	17.2	
CN1CCc2cc(C(=O)c3cc(F)c(NC(=O)/C=C/CN4CCC[C@H]4CO)c(F)c3)n3cccc(c23)-c2c(C(F)(F)F)cc3c(ncn3C)c21 [Example 227, (S,E)-N-(4-(9,12-dimeth-yl-7-(trifluoromethyl)-9,12,13,14-tetrahydro-imidazo[4″,5″:5′,6′]benzo-[1′,2′:2,3]azocino[4,5,6-hi]indolizine-2-carbonyl)-2,6-difluorophenyl)-4-(2-(hydroxymethyl)pyrrol-idin-1-yl)but-2-enamide]	34	10.2	
Cc1nc2c3c(c(C(F)(F)F)cc2n1C)-c1cccc2c(C(=O)c4cc(F)c(NC(=O)/C=C/CNC5(C)COC5)c(F)c4)cn(c12)CCN3C (single isomer, unassigned) [Example 54]		5.39	IC50 [1, 5]: 22.1 nM
CO[C@H]1CC[C@H](NC/C=C/C(=O)Nc2c(F)cc(C(=O)c3cn4c5c(cccc35)-c3c(C)cc5c(nc(C)n5C)c3OCC4)cc2F)CC1 (single isomer, unassigned) [Example 14-1, (E)-N-(2,6-difluoro-4-(6,8,9-trimethyl-12,13-dihydro-8H-imidazo[4″,5″:3′,4′]benzo[1′,2′:7,8][1,4]oxazocino[6,5,4-hi]indole-2-carbonyl)phenyl)-4-(((11,4r)-4-methoxycyclohexyl)amino)but-2-enamide]			IC50 ([1]; IC50, GMPPNP-bound KRAS G12C incubated with compound 25° C. 1 hour, Table 2): 9 nM; IC50 ([2]; Table 3): 17 nM
CN1CCc2cc(C(=O)c3cc(F)c(NC(=O)/C=C/CN[C@@H]4CCOC4)c(F)c3)n3cccc(c23)-c2c(C(F)(F)F)cc3c(ncn3C)c21 (single isomer, unassigned) [Example 89]	16	4.37	
Cc1cc2c(nc(C)n2C)c2c1-c1cccc3c(C(=O)c4cc(F)c(NC(=O)/C=C/CNC5(C)COC5)c(F)c4)cn(c13)CCN2C (single isomer, unassigned) [Example 65, (E)-N-(2,6-difluoro-4-(6,8,9,11-tetramethyl-8,11,12,13-tetrahydro-imidazo[4″,5″:5′,6′]benzo-[1′,2′:5,6][1,4]diazocino-[7,8,1-hi]indole-2-carbon-yl)phenyl)-4-((3-methyl-oxetan-3-yl)amino)but-2-enamide]		95.1	IC50 [1, 5]: 69.5 nM
CC1(NC/C=C/C(=O)Nc2c(F)cc(C(=O)c3cc4c5c(cccn35)-c3c(cc(N5CCOC5=O)cc3C(F)(F)F)OCC4)cc2F)CC1 [Example 232, (E)-N-(2,6-difluoro-4-(7-(2-oxooxazolidin-3-yl)-9-(trifluoromethyl)-3.4-dihydrobenzo[2,3]oxo-cino-[4,5,6-hi]indolizine-1-carbonyl)phenyl)-4-((1-methylcyclopropyl)amino)-but-2-enamide]	49.7	18	
Cc1cc2c(nc(C)n2C)c2c1-c1cccc3c(C(=O)c4cc(F)c(NC(=O)/C=C/CN5[C@@H]6CC[C@H]5[C@H](O)C6)c(F)c4)cn(c13)CCN2C (racemic) [Example 144]		30.2	IC50 [1, 5]: 22.4 nM
COCCn1c(C)nc2c3c(c(OC)cc21)-c1cccn2c(C(=O)c4cc(F)c(NC(=O)/C=C/CN[C@H]5CCOC5)c(F)c4)cc(c12)CCN3C (single isomer, unassigned) [Example 201]	17.6	5.83	
Cn1cnc2c3c(c(C(F)(F)F)cc21)-c1cccn2c(C(=O)c4cc(F)c(NC(=O)C=CCNC5CCOC5)c(F)c4)cc(c12)CCO3 [Example 120, (S,E)-N-(2,6-difluoro-4-(9-methyl-7-(trifluoromethyl)-13,14-dihydro-9H-imidazo[4″,5″:5′,6′]benzo[1′,2′:2,3]oxocino[4,5,6-bi]indolizine-2-carbonyl)phenyl)-4-((tetrahydrofuran-3-yl)amino)but-2-enamide]	5.59	6.52	
(E)-N-(2,6-difluoro-4-(10-(methoxymethyl)-9,13-dimethyl-12-oxo-7-(trifluoromethyl)-9,12,13,14-tetrahydroimidazo[4″,5″:3′,4′]benzo[1′,2′:6,7]azocino[5,4,3-hi]indolizine-2-carbonyl)phenyl)-4-((3-methyloxetan-3-yl)amino)but-2-enamide [Example 152]	89.3		IC50 ([2]; Table 3-1): 927 nM
CO[C@H]1CC[C@H](NC/C=C/C(=O)Nc2c(F)cc(C(=O)c3cc4c5c(cccn35)-c3c(C)cc5c(nc(C)n5C)c3N(C)CC4)cc2F)CC1 (single isomer, unassigned) [Example 69, (E)-N-(2,6-difluoro-4-(7,9,10,12-tetramethyl-9,12,13,14-tetrahydro-imidazo[4″,5″:5′,6′]benzo-[1′,2′:2,3]azocino[4,5,6-hi]indolizine-2-carbonyl)-phenyl)-4-(((1r,4r)-4-methoxycyclohexyl)-amino)but-2-enamide]	19.8	15.5	
Cn1cnc2c3c(c(C(F)(F)F)cc21)-c1cccn2c(C(=O)c4cc(F)c(NC(=O)/C=C/CN5CCC[C@@](C)(O)C5)c(F)c4)cc(c12)CCO3 [Example 195, (R,E)-N-(2,6-difluoro-4-(9-methyl-7-(trifluoro-meth-yl)-13,14-dihydro-9H-imidazo[4″,5″:5′,6′]-benzo[1′,2′:2,3]oxocino-[4,5,6-hi]indolizine-2-carbonyl)phenyl)-4-(3-hydroxy-3-methylpiper-idin-1-yl)but-2-enamide]	39.4	19.3	
CC(=O)C(C)(C)NC/C=C/C(=O)Nc1c(F)cc(C(=O)c2cn3c4c(cccc24)-c2c(C)cc4c(nc(C)n4C)c2N(C)CC3)cc1F [Example 85, (E)-N-(2,6-difluoro-4-(6,8,9,11-tetramethyl-8,11,12,13-tetrahydro-imidazo[4″,5″:5′,6′]benzo-[1′,2′:5,6][1,4]diazocino-[7,8,1-hi]indole-2-carbon-yl)phenyl)-4-(2-methyl-3-oxobutan-2-ylamino)but-2-enamide]		30.9	IC50 [1, 5]: 61 nM
CO[C@H]1CC[C@H](NC/C=C/C(=O)Nc2c(F)cc(C(=O)c3cc4c5c(cccn35)-c3c(C)cc5c(ncn5C)c3N(C)CC4)cc2F)CC1 [Example 110, (E)-N-(2,6-difluoro-4-(7,9,12-trimethyl-9,12,13,14-tetrahydro-imidazo[4″,5″:5′,6′]benzo-[1′,2′:2,3]azocino[4,5,6-hi]indolizine-2-carbon-yl)phenyl)-4-(((1r,4r)-4-methoxycyclohexyl)-amino)but-2-enamide]	35.7	55.8	
COCCn1cnc2c3c(c(OC)cc21)-c1cccn2c(C(=O)c4cc(F)c(NC(=O)/C=C/CN[C@H]5CCOC5)c(F)c4)cc(c12)CCN3C (single isomer, unassigned) [Example 203]	20.4	11	
COc1cc2c(nc(C)n2C)c2c1-c1cccn3c(C(=O)c4cc(F)c(NC(=O)/C=C/CN[C@@H]5CCCOC5)c(F)c4)cc(c13)CCN2C [Example 133]	11.4	6.45	
Cc1c2cc(C(F)(F)F)c3c(c2nn1C)N(C)CCc1cc(C(=O)c2cc(F)c(NC(=O)/C=C/CN[C@H]4CCOC4)c(F)c2)n2cccc-3c12 (single isomer, unassigned) [Example 154]	10.2	7.93	
Cn1cnc2c3c(c(C(F)(F)F)cc21)-c1cccn2c(C(=O)c4cc(F)c(NC(=O)/C=C/CN5C6CCCC5CC6)c(F)c4)cc(c12)CCO3 [Example 235, (E)-4-((1R,5S)-8-azabicyclo[3.2.1]octan-8-yl)-N-(2,6-difluoro-4-(9-methyl-7-(trifluoro-methyl)-13,14-dihydro-9H-imidazo[4″,5″:5′,6′]-benzo[1′,2′:2,3]oxocino-[4,5,6-hi]indolizine-2-carbonyl)phenyl)but-2-enamide]	21.9	17	
Cn1cnc2c3c(c(C(F)(F)F)cc21)-c1cccc2c(C(=O)c4cc(F)c(NC(=O)/C=C/CNC5(C)COC5)c(F)c4)cn(c12)CCO3 [Example 80, (E)-N-(2,6-difluoro-4-(8-methyl-6-(trifluorometh-yl)-12,13-dihydro-8H-imidazo[4″,5″:3′,4′]benzo-[1′,2′:7,8][1,4]oxazocino-[6,5,4-hi]indole-2-carbon-yl)phenyl)-4-((3-methyl-oxetan-3-yl)amino)but-2-enamide]		22.2	IC50 [1, 5]: 28.3 nM
COCCn1cnc2c3c(c(OC)cc21)-c1cccn2c(C(=O)c4cc(F)c(NC(=O)/C=C/CNC5(C)CC5)c(F)c4)cc(c12)CCN3C (single isomer, unassigned) [Example 202, (E)-N-(2,6-difluoro-4-(7-methoxy-9-(2-methoxy-ethyl)-12-methyl-9,12,13,14-tetrahydro-imidazo[4″,5″:5′,6′]benzo-[1′,2′:2,3]azocino[4,5,6-hi]indolizine-2-carbonyl)-phenyl)-4-((1-methyl-cyclopropyl)amino)but-2-enamide]	13	10.2	
COc1cc2c(nc(C(F)(F)F)n2C)c2c1-c1cccn3c(C(=O)c4cc(F)c(NC(=O)/C=C/CN[C@H]5CCOC5)c(F)c4)cc(c13)CCN2C (single isomer, unassigned) [Example 168]	43.8	15.6	
